Values of other authors as cited in US12378302B2, “Fusion molecules and uses thereof” (Foundation Medicine, Inc., priority 2012, dated 2025).
Like-named read-outs stand apart in the source and are kept apart here.

Legend:
Smad4-null cells = details: pre-clinical mouse models
ErbB4 = target: T1, ErbB4 (Homo sapiens, UniProt Q15303)
T1 construct: host or cells: glioblastoma cell lines

[1] = test system: KIF5B-RET transformed cells; details: Lipson et al
pancreatic cancer [2] = details: Phase 2, pancreatic cancer
[3] = test system: advanced non-small cell lung cancer
pancreatic cancer [4] = details: Phase 2, gefitinib with gemcitabine
ErbB3 = ErbB3 (Homo sapiens, UniProt P21860)
inactive form of ErbB4 = inactive form of ErbB4 (Homo sapiens, UniProt Q15303); details: region conserved in all EGF family members
[5] = test system: advanced urothelial cancer; details: Phase 2, single agent
advanced cervical cancer = details: Phase 2, pazopanib arm compared to lapatinib therapy
[6] = test system: early stage NSCLC patients; details: Phase 2 trial
all four Fgfr kinases [7] = details: preclinical studies
all four Fgfr kinases [8] = test system: all four Fgfr kinases

Chain of ErbB3 (P21860 20-1342): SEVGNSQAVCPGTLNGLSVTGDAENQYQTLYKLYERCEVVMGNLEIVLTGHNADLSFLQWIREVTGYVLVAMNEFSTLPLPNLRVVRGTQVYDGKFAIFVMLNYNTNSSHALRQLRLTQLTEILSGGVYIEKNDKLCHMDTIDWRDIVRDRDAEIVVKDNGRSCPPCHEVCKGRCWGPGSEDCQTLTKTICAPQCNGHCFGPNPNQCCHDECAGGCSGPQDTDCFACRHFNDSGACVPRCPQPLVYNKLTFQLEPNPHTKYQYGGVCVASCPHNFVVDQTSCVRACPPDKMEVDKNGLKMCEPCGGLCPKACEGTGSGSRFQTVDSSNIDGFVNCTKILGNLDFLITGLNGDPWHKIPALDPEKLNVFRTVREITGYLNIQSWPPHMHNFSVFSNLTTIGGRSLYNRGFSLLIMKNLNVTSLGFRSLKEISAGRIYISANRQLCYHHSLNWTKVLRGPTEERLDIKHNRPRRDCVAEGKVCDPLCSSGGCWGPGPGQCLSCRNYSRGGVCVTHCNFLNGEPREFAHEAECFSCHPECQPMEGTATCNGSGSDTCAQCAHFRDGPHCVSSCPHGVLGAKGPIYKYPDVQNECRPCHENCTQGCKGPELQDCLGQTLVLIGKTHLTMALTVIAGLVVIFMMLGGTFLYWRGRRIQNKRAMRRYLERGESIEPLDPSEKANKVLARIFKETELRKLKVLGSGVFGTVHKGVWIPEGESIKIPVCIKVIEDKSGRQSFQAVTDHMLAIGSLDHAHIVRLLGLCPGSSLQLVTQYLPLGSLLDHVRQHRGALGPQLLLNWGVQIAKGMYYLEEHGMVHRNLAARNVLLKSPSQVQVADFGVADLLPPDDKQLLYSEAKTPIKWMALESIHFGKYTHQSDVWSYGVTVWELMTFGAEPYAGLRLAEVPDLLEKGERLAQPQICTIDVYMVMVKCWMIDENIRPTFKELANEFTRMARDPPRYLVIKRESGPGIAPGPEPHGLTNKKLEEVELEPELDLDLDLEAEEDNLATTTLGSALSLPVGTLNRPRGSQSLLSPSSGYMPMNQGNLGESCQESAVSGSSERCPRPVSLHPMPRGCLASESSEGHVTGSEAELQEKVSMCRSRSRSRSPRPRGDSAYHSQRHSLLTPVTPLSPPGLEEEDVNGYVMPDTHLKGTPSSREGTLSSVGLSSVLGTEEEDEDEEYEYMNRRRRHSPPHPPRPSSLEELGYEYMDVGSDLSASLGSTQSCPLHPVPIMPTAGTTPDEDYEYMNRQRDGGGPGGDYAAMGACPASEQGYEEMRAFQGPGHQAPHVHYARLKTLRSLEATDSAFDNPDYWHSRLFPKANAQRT
T1 sequence (Q15303 26-1308): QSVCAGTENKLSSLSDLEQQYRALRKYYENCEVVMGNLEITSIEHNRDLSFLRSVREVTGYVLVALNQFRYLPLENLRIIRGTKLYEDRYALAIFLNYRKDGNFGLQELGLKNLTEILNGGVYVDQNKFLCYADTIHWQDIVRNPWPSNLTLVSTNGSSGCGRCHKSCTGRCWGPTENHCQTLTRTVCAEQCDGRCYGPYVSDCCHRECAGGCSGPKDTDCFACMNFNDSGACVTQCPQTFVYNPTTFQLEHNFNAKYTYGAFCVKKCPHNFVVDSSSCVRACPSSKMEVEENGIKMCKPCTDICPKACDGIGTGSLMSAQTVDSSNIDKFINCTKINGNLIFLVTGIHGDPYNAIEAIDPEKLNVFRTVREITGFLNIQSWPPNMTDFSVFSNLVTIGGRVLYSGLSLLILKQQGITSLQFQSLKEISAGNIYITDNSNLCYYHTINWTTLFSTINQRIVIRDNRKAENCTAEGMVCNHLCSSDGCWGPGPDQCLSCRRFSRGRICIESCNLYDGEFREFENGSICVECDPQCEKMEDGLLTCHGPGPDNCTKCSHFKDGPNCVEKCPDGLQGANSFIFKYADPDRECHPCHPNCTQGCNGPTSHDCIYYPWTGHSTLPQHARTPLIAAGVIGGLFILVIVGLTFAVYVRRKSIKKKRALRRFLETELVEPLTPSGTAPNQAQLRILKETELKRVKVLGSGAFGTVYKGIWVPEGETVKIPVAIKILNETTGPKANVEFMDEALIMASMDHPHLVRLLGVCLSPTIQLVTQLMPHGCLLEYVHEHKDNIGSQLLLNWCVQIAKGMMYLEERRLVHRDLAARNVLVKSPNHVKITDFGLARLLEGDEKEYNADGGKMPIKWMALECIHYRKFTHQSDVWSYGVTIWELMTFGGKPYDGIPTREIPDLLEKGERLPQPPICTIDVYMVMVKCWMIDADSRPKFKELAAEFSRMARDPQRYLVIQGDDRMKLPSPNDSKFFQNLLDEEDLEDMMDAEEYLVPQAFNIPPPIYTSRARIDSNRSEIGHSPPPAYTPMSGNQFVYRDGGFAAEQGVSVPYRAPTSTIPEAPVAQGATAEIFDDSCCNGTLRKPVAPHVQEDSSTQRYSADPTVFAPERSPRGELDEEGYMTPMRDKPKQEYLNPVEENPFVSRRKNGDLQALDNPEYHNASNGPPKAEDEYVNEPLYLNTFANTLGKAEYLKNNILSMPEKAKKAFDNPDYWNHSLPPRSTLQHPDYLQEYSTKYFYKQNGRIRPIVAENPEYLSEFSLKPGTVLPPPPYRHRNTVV
Chain of inactive form of ErbB4 (Q15303 702-1029 limits assumed): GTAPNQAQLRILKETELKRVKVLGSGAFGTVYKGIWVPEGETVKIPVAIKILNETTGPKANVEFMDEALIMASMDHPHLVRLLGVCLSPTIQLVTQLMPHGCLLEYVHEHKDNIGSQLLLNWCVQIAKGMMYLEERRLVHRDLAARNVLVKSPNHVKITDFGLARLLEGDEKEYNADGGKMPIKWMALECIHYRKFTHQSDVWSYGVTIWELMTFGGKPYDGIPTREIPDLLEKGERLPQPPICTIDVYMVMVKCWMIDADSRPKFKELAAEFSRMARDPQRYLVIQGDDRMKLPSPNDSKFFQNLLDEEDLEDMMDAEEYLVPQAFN

c1ccc(-c2nn3c(c2-c2ccnc4cc(OCCN5CCOCC5)ccc24)CCC3)nc1 [LY2109761, 7-(2-morpholinoethoxy)-4-(2-(pyridin-2-yl)-5,6-dihydro-4H-pyrrolo[1,2-b]pyrazol-3-yl)quinoline]
metastasis of Smad4-null cells (Smad4-null cells): block metastasis

COc1cc2ncnc(Nc3ccc(F)c(Cl)c3)c2cc1OCCCN1CCOCC1 [gefitinib]
Akt/Erk pathway (glioblastoma cell lines): decrease | cell cycle (glioblastoma cell lines): cell cycle arrest | binding to ErbB4, preventing phosphorylation and therefore activation (ErbB4): bind | sensitivity of KIF5B-RET transformed cells [1]: not | efficacy (pancreatic cancer [2]): some efficacy | progression-free survival compared with combination chemotherapy ([3]; chemo-naïve patients with known EGFR mutations in their tumor): significant improvement in progression-free survival | survival benefit compared to placebo ([3]; patients who had progressed on first-line therapy): failed to show a survival benefit | instances of stable disease (pancreatic cancer [4]): 12/53 | responses (pancreatic cancer [4]): 6/53 | binding to ErbB3, preventing phosphorylation and therefore activation (ErbB3): bind

CS(=O)(=O)CCNCc1ccc(-c2ccc3ncnc(Nc4ccc(OCc5cccc(F)c5)c(Cl)c4)c3c2)o1 [lapatinib]
Akt/Erk pathway (glioblastoma cell lines): decrease | cell cycle (glioblastoma cell lines): cell cycle arrest | binding to ErbB4, preventing phosphorylation and therefore activation (ErbB4): bind | binding to ErbB4 (inactive form of ErbB4): bind an inactive form of ErbB4 | binding to ErbB3, preventing phosphorylation and therefore activation (ErbB3): bind

Cc1ccc(Nc2nccc(N(C)c3ccc4c(C)n(C)nc4c3)n2)cc1S(N)(=O)=O [pazopanib]
Disease control rate [5]: 51.2% | Partial responses (patients/enrolled) [5]: 7/41 | Stable disease (patients/enrolled) [5]: 14/41 | PFS and OS (advanced cervical cancer): improved PFS and OS | patients who achieved partial response [6]: 3 patients | patients who experienced a reduction in tumor volume ([6]; 30/35): 86%

Cc1ccc(C(=O)Nc2ccc(CN3CCN(C)CC3)c(C(F)(F)F)c2)cc1C#Cc1cnc2cccnn12 [ponatinib]
activity against all four Fgfr kinases (all four Fgfr kinases [7]): substantial activity | activity against all four Fgfr kinases (all four Fgfr kinases [8]): substantial activity
